From US20250136702A1, “HUMAN LIFR ANTIGEN BINDING PROTEIN, PREPARATION METHOD THEREFOR, AND APPLICATION THEREOF” (NONA BIOSCIENCES (SUZHOU) CO., LTD., priority 2020, published 2025)

System: Human pancreatic cancer Capan-2 cells
Assay: Pharmacodynamics in Capan-2 tumor mouse model
Type: in vivo, Balb/c nude mice
Settings: Capan-2 model, TIW × 9 doses
Protocol: In this experiment, Capan-2 tumor mouse model was used to study the anti-tumor activity of anti-human LIFR antibody. The pharmacodynamics of PR300516 antibody administered alone (5 mg/kg and 15 mg/kg) in Capan-2 mouse model were studied. Human pancreatic cancer Capan-2 cells (ATCC cell bank) were subcutaneously inoculated into female Balb/c nude mice (charles river). The treatment method of the antibody group is: on the 5th day, the 9th day, the 12th day, the 16th day, the 19th day and the 23rd day after the tumor cell inoculation, the mice of each group are injected with the corresponding antibodies in the intraperitoneal cavity. The treatment method of the small molecule inhibitor group is: EC359 small molecule inhibitors were administered orally to mice on days 5, 7, 9, 12, 14, 16, 19, 21 and 23 after tumor cell inoculation. The tumor volume was measured on the 5th, 9th, 12th, 16th, 19th and 23rd days after tumor cell inoculation, and then the mice were euthanized.

C#CC(F)(F)[C@]1(O)CC[C@H]2[C@@H]3CCC4=CC(=O)CCC4=C3[C@@H](c3ccc(-c4c(C)cc(C)cc4C)cc3)C[C@@]21C [EC359, reference compound]
TGI (%) (5 mg/kg oral): 40.99%
TGI (%) (15 mg/kg oral): 47.85%
